What was measured:
[1] = DPPH radical scavenging activity test; format: biochemical; conditions: positive control at 0.01%
Method: In order to confirm the anti-oxidation efficacy of ceramide and bioactive material-containing nanoparticle capsules, a DPPH radical scavenging activity test was conducted. The DPPH radical scavenging activity was measured by the reducing power of the sample relative to the DPPH radical. A 0.4 mM solution was prepared by dissolving DPPH (1,1-Diphenyl-2-picrylhydrazyl) reagent in ethanol. Then 100 μL of the solution of each sample corresponding to Example 1, Comparative Examples 1, and 2, or positive control BHT (Butylated hydroxyl toluene or 2,6-Di-tert-butyl-p-cresol) was dissolved in ethanol, was added to 100 μL of the 0.4 mM DPPH solution in a 96 well plate and mixed. At this time, ethanol was treated as a negative control, and after mixing, the mixture reacted at 37° C. for 30 minutes. Absorbance was measured at 517 nm using ELISA reader, and the DPPH radical scavenging ability (%) of the sample or BHT as a positive control was calculated using the following formula.
DPPH radical scavenging ability (%)={1−(absorbance of positive control or sample/absorbance of control)}×100

AQP3 = assay: Moisturizing efficacy: AQP3 mRNA expression by qRT-PCR in UVB-irradiated HDFa cells; format: cell-based, Human; conditions: UVB 15 mJ/cm^2, positive control at 0.01%
Method: In order to confirm the moisturizing efficacy of ceramide and bioactive substance-containing nanoparticle capsule, the effect on AQP3 expression was evaluated. After inoculating Human dermal fibroblast (HDFa) cell lines, they were cultured at 37° C. for 24 hours under 5% CO2 in Fibroblast Basal Medium (Medium 106) containing 100 IU/mL penicillin and 100 μg/mL streptomycin. The medium of each well was removed and replaced with fresh serum-free medium. Each well was subjected to pretreatment for 4 hours by administering the samples corresponding to Example 1 and Comparative Examples 1 and 2 at each concentration. 15 mJ/cm^2 UVB was irradiated to each well plate by a UVB irradiation device (vilber loumet, France). The sample was treated with the diluted serum-free medium, and then further cultured for 24 hours. At this time, a negative control was treated with PBS, and a positive control was treated with Hyaluronic acid at 0.01%. After the cell culture was completed, the cells were lysed using Ribo Ex™ Total RNA Isolation Solution (GeneAll Biotechnology, Korea) and scraper, and then 0.2 mL chloroform (Sigma-Aldrich, USA) was added thereto to perform centrifugation (12,000 rpm, 4° C., 30 minutes). […]

Row | Compound | DPPH radical scavenging ability (%) [1] [%] | Relative AQP3 expression (% of control) (AQP3)
1 | Cc1cc(C(C)(C)C)c(O)c(C(C)(C)C)c1 [BHT, 2,6-Di-tert-butyl-p-cresol] | 62.08 | 
2 | Hyaluronic acid |  | 149.52 % of control

— patent US20250114286A1, “METHOD FOR STABILIZING CERAMIDE AND COSMETIC COMPOSITION COMPRISING STABILIZED CERAMIDE” (COSMECCA KOREA Co., Ltd., priority 2023, published 2025)
